Data: PMC9499506, “TNF-α and IL-1β Modulate Blood-Brain Barrier Permeability and Decrease Amyloid-β Peptide Efflux in a Human Blood-Brain Barrier Model” (International Journal of Molecular Sciences, 2022)

Legend:
Type in all cases: cell-based, human
BLECs [1] = test: Western immunoblotting of proinflammatory markers (ICAM-1, VCAM-1, NLRP3) in BLECs; conditions: for protein levels of ICAM-1, VCAM-1 and NLRP3 versus untreated BLECs: 10 ng·mL^−1, 24 h
Procedure: Next, as the inflammatory response of endothelial cells is largely dependent on appropriate upregulation of adhesion molecules, such as intercellular adhesion molecule-1 (ICAM-1) and vascular cell adhesion molecule-1 (VCAM-1), and the inflammasome molecule NOD-like receptor family, pyrin domain containing 3 (NLRP3), we evaluated, by Western immunoblotting, the ability of BLECs to respond to these pro-inflammatory stimuli.
(§1) Each condition was studied in triplicate.
(§2) After 24 h of treatments with or without proinflammatory cytokines, BLECs were washed twice with cold RH buffer and scraped with 70 μL of RIPA 1X lysis buffer (10 mM Tris-Cl (pH 8.0), 1 mM EDTA, 0.5 mM EGTA, 1% Triton X-100, 0.1% sodium deoxycholate, 0.1% SDS, 140 mM NaCl) (Merck Millipore, Burlington, MA, USA) or UT4 lysis buffer (7M Urea, 2M Thiourea, 4% CHAPS), both supplemented with a cocktail of phosphatase and protease inhibitors (1% protease inhibitors cocktail #P8340; 1% phosphatase inhibitors cocktail 1 P2850; 1% phosphatase inhibitors cocktail 2 #P5726; 1% protease inhibitors cocktail #P8340) purchased from Sigma-Aldrich (Lyon, France). Then, a centrifugation at 10,000 rpm for 10 min at 4 °C was achieved to save the supernatant of the lysate. This was later sonicated two times for 5 s on ice. The concentration of the protein lysate was quantified using the Bradford method (#5000006; rad, Munich, Germany). The protein samples were then stored at −20 °C.
(§3) 20 μg of total protein was mixed with Laemmli 4X (#1610747; Biorad, Munich, Germany) supplemented with β-mercaptoethanol (Sigma-Aldrich, Germany). Depending on the protein target, details of the denaturation and reduction steps of the protein extract are described in Table 3. Then, the protein mixes were electrophoresed using Criterion™ TGX™ (Tris-Glycine eXtended) precast gels (Biorad, Munich, Germany) and subsequently electrotransferred to nitro-cellulose membranes (GE Healthcare, Munich, Germany). Once the previous step was completed, Tris-buffered saline 0.1% Tween 20 (TBST; 20 mM Tris-HCl, pH 8.0, 500 mM NaCl, 0.1% Tween 20) supplemented with 5% skimmed milk was added on membrane to block nonspecific binding sites for 1 h under agitation at RT. Membranes were incubated in the appropriate primary antibodies (as described in Table 3) and incubated at 4 °C overnight, except β-actin (20 min at RT).
(§4) The following morning, the membranes were rinsed with TBST three times for 5 min each under agitation, and then incubated with the horseradish peroxidase-conjugated secondary antibody anti-rabbit (1:8000, Dako/Agilent Technologies, Inc., Santa Clara, CA, USA) or secondary antibody anti-mouse (1:5000, Dako/Agilent Technologies, Inc., Santa Clara, CA, USA) for 1 h at RT. […] Quantification of the relative densities of bands was performed with TotalLab TL 100 1D Gel Analysis software (Nonlinear Dynamics, Newcastle, UK). The protein expression normalization was conducted with anti-β-actin. Studies were performed with at least three independent experiments, with at least two Western immunoblottings per experiment.

BLEC monolayer = test: Effect of cytokines on BLEC monolayer permeability to lucifer yellow (PeLY); conditions: for increase in transcellular passage of LY through BLEC monolayer compared to control / increase in paracellular passage of LY through BLEC monolayer compared to control: 10 ng·mL^−1, 24 h; for increase in transcellular passage of LY through BLEC monolayer compared to control: PeLY 37 °C minus PeLY 4 °C; for increase in paracellular passage of LY through BLEC monolayer compared to control: PeLY at 4 °C; for PeLY of BLECs after cytokine treatment: 10 ng·mL^−1 basolateral, 24 h, LY 50 µM apical-to-basolateral, RH buffer, 37 °C, 60 min, untreated 0.54 ± 0.03, mean ± SEM
Procedure: Next, we examined the effect of TNF-α and IL-1β on BBB permeability. The physical integrity of the BLECs was monitored by measuring the rate of passage of the small hydrophilic marker lucifer yellow (LY; ~400 Da) from the upper to the lower compartment to calculate the endothelial permeability coefficient of LY (PeLY).
To discriminate the impact of TNF-α and IL-1β on these different pathways and based on our previous PeLY results obtained at 37 °C informing on the global crossing of PeLY (paracellular and transcellular), a PeLY experiment was also performed at 4 °C. […] Thus, inhibition of the transcellular transport allows us to observe only the modification on the paracellular permeability. Then, the transcellular transport of LY, corresponding to the difference between global PeLY and PeLY at 4 °C, was determined.
as §1
The BLEC monolayer integrity was evaluated after each treatment using the method described by Dehouck and colleagues. The endothelial permeability coefficient (Pe) was evaluated regarding the apical-to-basolateral transport of the LY integrity marker used at a final concentration of 50 µM in RH buffer at 37 °C. Briefly, the inserts containing BLECs were transferred to a new 12-well plate containing warm RH buffer (corresponding to the basolateral compartment), and then a volume of 500 µL of warm RH with 50 µM of LY buffer was added to the apical compartment. The inserts containing the BLECs and RH buffer with 50 µM of LY were then transferred to a new well containing warm RH every 20 min for 1 hour. […] For each condition, coculturing was performed in triplicate. To determine the PeLY values for BLECs, the slope of the clearance curves (PS = permeability × surface area product; in µL·min^−1) corresponding to the volume cleared from the apical to the basolateral compartment (in µL) for 60 min was calculated for the filters with only Matrigel coating and for those with Matrigel coating and BLECs, denoted PSf and PSt, respectively. From these values, the PS values for BLECs (PSe) were determined according to the formula “[…]”. Then, the PeLY values for BLECs (in cm·min^−1) were obtained by the calculation “PeLY = PSe/S”, with PSe in cm^3·min^−1 and S being the filter surface area (= 1.12 cm^2). The same experiment was also performed at 4 °C to block the transcellular permeability of LY and to identify only the paracellular permeability of LY. Following these experiments, the transcellular permeability can be deduced, which corresponds to the PeLY values at 37 °C subtracted by those of PeLY at 4 °C. The mass balance (in %) was determined from the amount of LY in the apical and basolateral compartment at the end of the experiment divided by the total amount initially added in the apical compartment at time zero. To be taken into consideration for the Pe determination, the mass balance should be between 80% and 120%.

BLECs [2] = test: Western immunoblotting of junctional proteins in BLECs; conditions: 10 ng·mL^−1, 24 h
Procedure: as §1, §2, §3, §4

BLECs [3] = test: Western immunoblotting of receptors/transporters involved in Aβ peptide transport in BLECs; conditions: 10 ng·mL^−1, 24 h; for downregulation of BCRP protein level compared to control / downregulation of LRP1 protein level compared to control: normalized to β-actin
Procedure: as §1, §2, §3, §4

[4] = both cytokines 10 ng·mL^−1, 24 h, normalized to β-actin

Row | Substance | protein levels of ICAM-1, VCAM-1 and NLRP3 versus untreated BLECs (BLECs [1]) | increase in transcellular passage of LY through BLEC monolayer compared to control (BLEC monolayer) | increase in paracellular passage of LY through BLEC monolayer compared to control (BLEC monolayer) | PeLY of BLECs after cytokine treatment (BLEC monolayer) | decrease of claudin-3 protein level compared to control (BLECs [2]; normalized to β-actin) | decrease of occludin protein level compared to control (BLECs [2]; normalized to β-actin) | decrease of tricellulin protein level compared to control (BLECs [2]; normalized to β-actin) | P-gp protein expression compared to control (BLECs [3]) | PICALM protein expression compared to control (BLECs [3]) | RAGE protein expression compared to control (BLECs [3]) | downregulation of BCRP protein level compared to control (BLECs [3]) | downregulation of LRP1 protein level compared to control (BLECs [3]) | also measured
1 | tumor necrosis factor-α [TNF-α] | significantly higher | 40.1% | 175.2% | 1.00 ± 0.03 × 10^−3 cm·min^−1 | 57.3% | 38.1% | 50.9% | no significant change | did not affect PICALM protein expression | no significant change | 73.4% | 41.9% | ICAM-1 protein level higher after TNF-α compared to IL-1β (BLECs [1]; [4]): 22.2%; NLRP3 protein level higher after TNF-α compared to IL-1β (BLECs [1]; [4]): 478.4%; VCAM-1 protein level higher after TNF-α compared to IL-1β (BLECs [1]; [4]): 230.6%; greater increase in paracellular passage of LY with TNF-α compared to IL-1β treatment (BLEC monolayer; both 10 ng·mL^−1, 24 h): 133.9%; VE-cadherin protein level versus control (BLECs [2]; normalized to β-actin): not significantly different; ZO-1 protein level versus control (BLECs [2]; normalized to β-actin): not significantly different; increase of Claudin-5 protein expression compared to control (BLECs [2]; normalized to β-actin): 40.2%
2 | interleukin-1β [IL-1β] | significantly higher | 94.2% | 41.3% | 0.95 ± 0.05 × 10^−3 cm·min^−1 | 73.1% | 33.5% | 51.0% | no significant change | induced an increase of PICALM protein expression | no significant change | 49.0% | 45.2% | greater increase in transcellular passage of LY with IL-1β compared to TNF-α treatment (BLEC monolayer; both 10 ng·mL^−1, 24 h): 54.2%; Claudin-5 protein levels versus control (BLECs [2]): not reflected by a change in Claudin-5 protein levels; decrease of ZO-1 protein expression compared to control (BLECs [2]; normalized to β-actin): 26.4%
